From patent US8293731B2, “HIV integrase inhibitors” (Merck Sharp + Dohme Corp., priority 2005, dated 2012) come the findings set out here.

The structures appear in SMILES notation.

The subject of this assay is HIV. Put plainly: Assay for inhibition of HIV replication (spread assay): acute HIV infection of T-lymphoid cells. It is filed as cell-based. As to conditions: Human immunodeficiency virus 1, 'less than about'. The protocol: Assays for the inhibition of acute HIV infection of T-lymphoid cells were conducted in accordance with Vacca, J. P. et al., Proc. Natl. Acad. Set USA 1994, 91: 4096. […] For example, the compounds of Examples 1 to 64 were tested in this assay and found to have IC95 values of less than about 10 micromolar.
Consider `CC1(C)C(=O)N(CC(N)=O)c2c3c(c(O)c(=O)n21)C(=O)N(Cc1ccc(F)c(Cl)c1)CC3` [Example 53, 2-[8-(3-Chloro-4-fluorobenzyl)-6-hydroxy-3,3-dimethyl-2,5,7-trioxo-2,3,7,8,9,10-hexahydroimidazo[2,1-a]-2,6-naphthyridin-1(5H)-yl]acetamide], for which the IC95 is less than 10 µM.
For the molecule `CC1(C)C(=O)N(CCO)c2c3c(c(O)c(=O)n21)C(=O)N(Cc1ccc(F)c(Cl)c1)CC3` [Example 54, 8-(3-Chloro-4-fluorobenzyl)-6-hydroxy-1-(2-hydroxyethyl)-3,3-dimethyl-1,8,9,10-tetrahydroimidazo[2,1-a]-2,6-naphthyridine-2,5,7(3H)-trione], the IC95 is less than 10 µM.
In turn, `CC1(C)C(=O)N(CCCO)c2c3c(c(O)c(=O)n21)C(=O)N(Cc1ccc(F)c(Cl)c1)CC3` [Example 55, 8-(3-Chloro-4-fluorobenzyl)-6-hydroxy-1-(3-hydroxypropyl)-3,3-dimethyl-1,8,9,10-tetrahydroimidazo[2,1-a]-2,6-naphthyridine-2,5,7(3H)-trione] yielded a concentration for an effect of 95% (IC95) of less than 10 µM.
With `CC1(C)C(=O)N(CCCCO)c2c3c(c(O)c(=O)n21)C(=O)N(Cc1ccc(F)c(Cl)c1)CC3` [Example 56, 8-(3-Chloro-4-fluorobenzyl)-6-hydroxy-1-(4-hydroxybutyl)-3,3-dimethyl-1,8,9,10-tetrahydroimidazo[2,1-a]-2,6-naphthyridine-2,5,7(3H)-trione], the IC95 is less than 10 µM.
In turn, `CC(=O)OCCN1C(=O)C(C)(C)n2c1c1c(c(O)c2=O)C(=O)N(Cc2ccc(F)c(Cl)c2)CC1` [Example 57, 8(3-Chloro-4-fluorobenzyl)-6-hydroxy-1-(2-acetyloxyethyl)-3,3-dimethyl-1,8,9,10-tetrahydroimidazo[2,1-a]-2,6-naphthyridine-2,5,7(3H)-trione] gave an IC95 of less than 10 µM.
Molecule `CC(=O)OCCCN1C(=O)C(C)(C)n2c1c1c(c(O)c2=O)C(=O)N(Cc2ccc(F)c(Cl)c2)CC1` [Example 58, 8-(3-Chloro-4-fluorobenzyl)-6-hydroxy-1-(3-acetyloxypropyl)-3,3-dimethyl-1,8,9,10-tetrahydroimidazo[2,1-a]-2,6-naphthyridine-2,5,7(3H)-trione] came in with an IC95 of less than 10 µM.
As for `CC(=O)OCCCCN1C(=O)C(C)(C)n2c1c1c(c(O)c2=O)C(=O)N(Cc2ccc(F)c(Cl)c2)CC1` [Example 59, 8-(3-Chloro-4-fluorobenzyl)-6-hydroxy-1-(4-acetyloxybutyl)-3,3-dimethyl-1,8,9,10-tetrahydroimidazo[2,1-a]-2,6-naphthyridine-2,5,7(3H)-trione], the figure is less than 10 µM.
As for `CC1(CCO)C(=O)N(CCO)c2c3c(c(O)c(=O)n21)C(=O)N(Cc1ccc(F)c(Cl)c1)CC3` (stereo not drawn) [Example 60, 8-(3-Chloro-4-fluorobenzyl)-6-hydroxy-1,3-bis(2-hydroxyethyl)-3-methyl-1,8,9,10-tetrahydroimidazo[2,1-a]-2,6-naphthyridine-2,5,7(3H)-trione], the figure is less than 10 µM.
Regarding `O=C1OCCCCn2c1c1c(c(O)c2=O)C(=O)N(Cc2ccc(F)c(Cl)c2)CC1` [Example 61, 11-(3-Chloro-4-fluorobenzyl)-9-hydroxy-3,4,5,6,12,13-hexahydro-[1,4]oxazocino[3,4-a]-2,6-naphthyridine-1,8,10(11H)-trione], the IC95 is less than 10 µM.
Turning to `O=C1OCCCn2c1c1c(c(O)c2=O)C(=O)N(Cc2ccc(F)c(Cl)c2)CC1` [Example 62, 10-(3-Chloro-4-fluorobenzyl)-8-hydroxy-4,5,11,12-tetrahydro-3H-[1,4]oxazepino[3,4-a]-2,6-naphthyridine-1,7,9(10H)-trione], the IC95 was less than 10 µM.
In the case of `CC(=O)OCC1Cn2c(c3c(c(O)c2=O)C(=O)N(Cc2ccc(F)c(Cl)c2)CC3)C(=O)O1` (stereo not drawn) [Example 63, 9-(3-Chloro-4-fluorobenzyl)-7-hydroxy-3-(acetyloxymethyl)-3,4,10,11-tetrahydro[1,4]oxazino[3,4-a]-2,6-naphthyridine-1,6,8(9H)-trione], the IC95 is less than 10 µM.
The molecule `O=C1OC(CO)Cn2c1c1c(c(O)c2=O)C(=O)N(Cc2ccc(F)c(Cl)c2)CC1` (stereo not drawn) [Example 64, 9-(3-Chloro-4-fluorobenzyl)-7-hydroxy-3-(hydroxymethyl)-3,4,10,11-tetrahydro[1,4]oxazino[3,4-a]-2,6-naphthyridine-1,6,8(9H)trione] displayed an IC95 of less than 10 µM.

Usually IC95 stands for the concentration at which the effect reaches the 95% level. The low end stands for an effect from little substance, the high end for a need for much substance.
